As a reminder, the Ki is the dissociation constant of the complex between target and ligand, obtained from inhibition or displacement.

Drawing on ChEMBL document CHEMBL3351430, “Inhibition studies of new ureido-substituted sulfonamides incorporating a GABA moiety against human carbonic anhydrase isoforms I-XIV” (Bioorg Med Chem, 2014), this text covers Ki for 6 molecules.

Among the targets are Carbonic anhydrase 9 (Homo sapiens, UniProt Q16790); Carbonic anhydrase 13 (Homo sapiens, UniProt Q8N1Q1); Carbonic anhydrase 3 (Homo sapiens, UniProt P07451).
A further test deals with Carbonic anhydrase 6 (Homo sapiens, UniProt P23280). Put plainly: Inhibition of human recombinant carbonic anhydrase 6 pre-incubated for 15 mins by stopped-flow CO2 hydration assay.
Chain of Carbonic anhydrase 6 (P23280 whole entry): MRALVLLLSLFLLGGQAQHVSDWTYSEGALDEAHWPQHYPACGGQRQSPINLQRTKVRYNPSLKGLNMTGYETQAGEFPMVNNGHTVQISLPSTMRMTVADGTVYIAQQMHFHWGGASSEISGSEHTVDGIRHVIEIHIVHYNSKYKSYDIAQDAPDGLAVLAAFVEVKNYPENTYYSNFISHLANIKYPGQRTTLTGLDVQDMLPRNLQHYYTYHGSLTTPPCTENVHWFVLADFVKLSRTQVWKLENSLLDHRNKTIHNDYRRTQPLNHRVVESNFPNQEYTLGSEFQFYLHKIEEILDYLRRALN

Chain of Carbonic anhydrase 3 (P07451 whole entry): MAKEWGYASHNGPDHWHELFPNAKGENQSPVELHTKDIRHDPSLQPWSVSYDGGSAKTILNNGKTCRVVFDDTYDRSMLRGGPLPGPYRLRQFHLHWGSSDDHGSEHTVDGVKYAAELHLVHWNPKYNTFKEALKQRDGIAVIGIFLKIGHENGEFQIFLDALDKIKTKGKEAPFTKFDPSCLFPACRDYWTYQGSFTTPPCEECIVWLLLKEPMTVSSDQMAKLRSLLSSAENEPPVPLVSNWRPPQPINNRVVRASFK
Chain of Carbonic anhydrase 13 (Q8N1Q1 whole entry): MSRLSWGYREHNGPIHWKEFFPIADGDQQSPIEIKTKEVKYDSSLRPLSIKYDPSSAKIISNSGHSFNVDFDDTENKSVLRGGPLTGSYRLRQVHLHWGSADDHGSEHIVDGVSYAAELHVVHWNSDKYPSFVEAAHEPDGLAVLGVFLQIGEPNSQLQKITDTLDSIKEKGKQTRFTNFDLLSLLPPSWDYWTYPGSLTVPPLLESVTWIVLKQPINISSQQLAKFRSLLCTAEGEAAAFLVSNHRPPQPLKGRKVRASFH
Description for Carbonic anhydrase 13: Inhibition of human recombinant carbonic anhydrase 13 pre-incubated for 15 mins by stopped-flow CO2 hydration assay
Description for Carbonic anhydrase 3: Inhibition of human recombinant carbonic anhydrase 3 pre-incubated for 15 mins by stopped-flow CO2 hydration assay
Description for Carbonic anhydrase 9: Inhibition of human recombinant carbonic anhydrase 9 pre-incubated for 15 mins by stopped-flow CO2 hydration assay

For `NS(=O)(=O)c1ccc(CCNC(=O)CCCNC(=O)Nc2ccc([N+](=O)[O-])cc2)cc1`, the Ki was over 120 nM on Carbonic anhydrase 6, 139 nM on Carbonic anhydrase 9, over 240 nM on Carbonic anhydrase 13 and over 21 µM at Carbonic anhydrase 3.
For the molecule `NS(=O)(=O)c1ccc(CCNC(=O)CCCNC(=O)NCc2ccccc2)cc1`, the Ki at Carbonic anhydrase 6 is over 120 nM; on Carbonic anhydrase 9 it was 106 nM; on Carbonic anhydrase 13 it was over 240 nM; on Carbonic anhydrase 3, over 21 µM.
`NS(=O)(=O)c1ccc(CCNC(=O)CCCNC(=O)Nc2ccccc2)cc1`: the inhibitory constant (Ki) at Carbonic anhydrase 6 was over 120 nM; on Carbonic anhydrase 9 it was 41.6 nM; on Carbonic anhydrase 13 it was over 240 nM; at Carbonic anhydrase 3, over 21 µM.
With `NS(=O)(=O)c1ccc(CNC(=O)CCCNC(=O)Nc2ccccc2)cc1`, the Ki at Carbonic anhydrase 6 was over 120 nM; on Carbonic anhydrase 9 it was 46 nM; on Carbonic anhydrase 13, over 240 nM; at Carbonic anhydrase 3 it was over 21 µM.
Take `NS(=O)(=O)c1ccc(CNC(=O)CCCNC(=O)NCc2ccccc2)cc1`: the Ki was over 120 nM on Carbonic anhydrase 6, over 240 nM on Carbonic anhydrase 13 and over 21 µM at Carbonic anhydrase 3.
`NS(=O)(=O)c1ccc(CNC(=O)CCCNC(=O)NCCc2ccccc2)cc1`: the Ki on Carbonic anhydrase 6 was over 120 nM; at Carbonic anhydrase 9, 301 nM; on Carbonic anhydrase 13, over 240 nM; at Carbonic anhydrase 3, over 21 µM.
